Test results: patent US5028629A, “5-Lipoxygenase inhibitors” (Eli Lilly and Company, priority 1990, dated 1991)
Like-named read-outs stand apart in the source and are kept apart here.

Tests used:
[1] = system: polymorphonuclear leukocytes (PMNs); experiment: H-PMN Assay: LTB4 content of supernatant of A23187-stimulated human PMNs by radioimmunoassay; assay type: cell-based
Method: Sodium citrated venous blood is drawn from normal human subjects. After centrifugation at 300 ×g for 15 minutes, the platelet-rich layer of plasma is discarded and an equal volume of Hanks' balanced salt solution (HBSS) is added to the enriched cell fraction. This platelet-depleted cell suspension is then layered on an equal volume of Ficoll-Paque. After centrifugation for 40 minutes at 300 ×g, the bottom layer containing erythrocytes and polymorphonuclear leukocytes (PMNs) is diluted with two volumes of a 0.2% methocel solution. The erythrocytes are sedimented upon standing for 15 minutes, and the supernatant containing the PMNs is aspirated and centrifuged at 300 ×g, for 5 minutes. The cell pellet is then exposed to 0.2% NaCl for 30 seconds to lyse any remaining erythrocytes, and the ionic strength of the suspension is readjusted to 0.9% with NaCl. The PMNs are recovered by centrifugation at 300 ×g for 5 minutes and are suspended in HBSS to a concentration of 2 ×10^6 cells/ml.
The test compounds are dissolved in and diluted with dimethylsulfoxide (DMSO) which also contains 2×10^-6 M of the calcium ionophore, A23187. To 1 ml of the PMN suspension, 10 μl of the DMSO solution is added, and the mixture is incubated at 37° C. for 10 minutes. The PMNs are rapidly pelleted in a microcentrifuge, and the supernatant is kept at -20° C. for future determination of LTB4 content via the radioimmunoassay.

[2] = molecular target: T1, 5-lipoxygenase (Cavia porcellus, UniProt A0A286X958); experiment: 5-Lipoxygenase (5-LO) Assay: 5-HETE formation in supernatant of guinea pig PMNL sonicate; assay type: biochemical
T1 construct: 0.2 ml of the supernatant obtained from the PMNL sonicate; endogenous in cells; host or cells: casein-elicited guinea pig peritoneal polymorphonuclear leukocytes (PMNL), sonicate, 30,000 x g supernatant
T1 sequence (A0A286X958 1-674): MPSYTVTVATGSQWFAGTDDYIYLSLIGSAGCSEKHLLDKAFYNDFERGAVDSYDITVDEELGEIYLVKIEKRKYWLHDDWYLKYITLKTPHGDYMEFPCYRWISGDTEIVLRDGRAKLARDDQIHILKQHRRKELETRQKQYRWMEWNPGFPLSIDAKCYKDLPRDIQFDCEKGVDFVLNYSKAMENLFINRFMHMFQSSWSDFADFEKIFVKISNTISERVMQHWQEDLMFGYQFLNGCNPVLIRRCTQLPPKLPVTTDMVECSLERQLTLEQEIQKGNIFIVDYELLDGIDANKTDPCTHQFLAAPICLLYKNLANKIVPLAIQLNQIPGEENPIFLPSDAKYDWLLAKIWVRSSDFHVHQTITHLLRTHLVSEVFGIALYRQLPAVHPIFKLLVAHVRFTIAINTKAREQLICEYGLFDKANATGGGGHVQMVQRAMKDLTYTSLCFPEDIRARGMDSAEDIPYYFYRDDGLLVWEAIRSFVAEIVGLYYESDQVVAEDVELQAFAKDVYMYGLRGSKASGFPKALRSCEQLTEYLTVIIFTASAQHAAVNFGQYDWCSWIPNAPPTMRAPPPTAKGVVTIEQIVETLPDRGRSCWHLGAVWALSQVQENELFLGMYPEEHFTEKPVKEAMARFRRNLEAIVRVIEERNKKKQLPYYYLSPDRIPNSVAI
Method: Ten milliliters of a 2% casein solution is injected intraperitoneally to guinea pigs weighing 250-300 gm. After 16-18 hours, the guinea pigs are killed by suffocation in a carbon dioxide chamber. The peritoneal cavity is infused with 70 ml of saline and 40-50 ml of the fluid is recovered from the cavity. After centrifugation, cell pellets are washed twice in Hank's balanced salt solution (HBSS) without calcium ion.
The cells are then suspended in 5 ml of sodium phosphate buffer, pH 7.1 containing 1 mM, ethylene diamine tetraacetic acid (EDTA), and 0.1% gelatin. About 20-30×10^7 cells are obtained from one guinea pig.
The PMNL suspension is disrupted by five 1/2-second pulse sonication at the setting of 3 in a Branson Sonifier, Model 350, equipped with a microtip. The sonicates are combined and centrifuged at 30,000 ×g for 10 minutes. The supernatant is kept frozen at -70° C. until use.
Enzyme activity is determined by assaying for 5-hydroxy-6,8,11,14-eicosatetraenoic acid (5-HETE) formation by first incubating 0.2 ml of the supernatant obtained from the PMNL sonicate with the test compound, 1 mM CaCl2, 2 mM ATP, and 1 mM GSH for 5 minutes at 37° C. The mixture is treated with […] ^14 C-arachidonic acid and incubated at 37° C. an additional 10 minutes. The enzyme reaction is then stopped by the addition of 10 μl of 1M citric acid and 10 μl of an alcohol solution containing 20 mg/ml each of indomethacin and butylated hydroxyanisole (BHA). The reaction mixture is spotted (50 μl) on a silica gel plate (Baker TLC plate S1250-PA-19C) and subjected to TLC in a solvent system of ethyl acetate/2,2,4-trimethylpentane/glacialacetic acid/H2 O (90:50:20:100).
The radioactivity of the arachidonic acid and its metabolites (5-HETE and LTB4) is visualized from a developed x-ray film which had been exposed to the TLC plate 1-2 days. The amount of 5-HETE formed is quantitated by scraping the silica gel area corresponding to the spot on the x-ray film, and the radioactivity determined in a Isocap/300 liquid scintillation counter (Searle Analytic, Inc.).
The percent inhibition of the formation of 5-HETE is determined for each concentration of compound tested as compared to a control experiment wherein no test compound is added. The concentration and percent values are plotted on semi log paper and the concentration in which formation of 5-HETE is inhibited by 50% (IC50) is determined by interpolation.

[3] = Leukocyte, 10 min, Table II, human PMNs, calcium ionophore A23187, 37° C. for 10 minutes, LTB4 by radioimmunoassay
[4] = Table II, guinea pig PMNL sonicate supernatant, 14C-arachidonic acid, 37° C., read-out: 5-LO (concentration in which formation of 5-HETE is inhibited by 50%, IC50)

Compound | IC50 [1, 3] [nM] | IC50 [2, 4] [nM] | IC50 ([1]; Table II, human PMNs, calcium ionophore A23187, 37° C. for 10 minutes, LTB4 by radioimmunoassay) [nM] | IC50 ([1]; Homo sapiens, Leukocyte, second table (Table III), known hydroxamic acid derivatives as comparison) [nM] | IC50 ([2]; second table (Table III), known hydroxamic acid derivatives as comparison, read-out: 5-Lo (IC50)) [nM]
CCCCCCc1ccc(C=CC(=O)N(C)O)c(SC)c1 [Example 19, 2-methylthio-4-n-hexyl-N-hydroxy-N-methylcinnamamide] | 25 | 82 | – | – | –
CCCCCCSc1ccccc1C=CC(=O)N(C)O [Example 3, 2-n-hexylthio-N-hydroxy-N-methylcinnamamide] | 9 | 17 | – | – | –
CN(O)C(=O)C=Cc1ccccc1SCCCC(F)(F)F [Example 5, 2-[1-(3-trifluoromethylpropyl)thio]-N-hydroxy-N-methylcinnamamide] | 24 | 32 | – | – | –
CCCCCCc1cccc(C=CC(=O)N(C)O)c1SC [Example 17, 2-(methylthio)-3-n-hexyl-N-hydroxy-N-methylcinnamamide] | 150 | 59 | – | – | –
CN(O)C(=O)C=Cc1ccccc1SCc1ccccc1 [Example 31, 2-benzylthio-N-hydroxy-N-methylcinnamamide] | 7 | 33 | – | – | –
2-methylsulfonyl-4-n-hexyl-N-hydroxy-N-methylcinnamamide [Example 22] | – | 148 | 204 | – | –
CCCCCCc1ccc(S(C)(=O)=O)c(C=CC(=O)N(C)O)c1 [Example 9, 2-methylsulfonyl-5-n-hexyl-N-hydroxy-N-methylcinnamamide] | 259 | 90 | – | – | –
CCCCCCc1ccc(SC)c(C=CC(=O)N(C)O)c1 [Example 45, 2-methylthio-5-n-hexyl-N-hydroxy-N-methylcinnamamide] | 20 | 58 | – | – | –
CCc1ccc(CCCc2ccccc2)cc1C=CC(=O)N(C)O [Example 30, 2-ethyl-5-(3-phenylpropyl)-N-hydroxy-N-methylcinnamamide] | 46 | 59 | – | – | –
CCCCCCc1ccc(C=CC(=O)N(C)O)c([S+](C)[O-])c1 (centres unmarked) [Example 10, 2-methylsulfinyl-4-n-hexyl-N-hydroxy-N-methylcinnamamide] | 118 | 97 | – | – | –
CCCCSc1ccc(CCCc2ccccc2)cc1C(=O)N(C)O [reference compound] | – | – | – | 440 | 178
CN(O)C(=O)C=Cc1ccccc1CCCc1ccccc1 [Example 43, 2-(3-phenylpropyl)-N-hydroxy-N-methylcinnamamide] | 12 | 60 | – | – | –
CN(O)C(=O)C=Cc1ccccc1SCCCc1ccccc1 [Example 35, 2-[1-(3-phenylpropyl)thio]-N-hydroxy-N-methylcinnamamide] | 16 | 9 | – | – | –
CCCCSc1ccccc1C=CC(=O)N(C)O [Example 33, 2-(n-butylthio)-N-hydroxy-N-methylcinnamamide] | 22 | 47 | – | – | –
CCCCc1ccccc1C=CC(=O)N(C)O [Example 4, 2-n-butyl-N-hydroxy-N-methylcinnamamide] | 75 | 72 | – | – | –
CCCCCCc1ccc([S+](C)[O-])c(C=CC(=O)N(C)O)c1 (centres unmarked) [Example 11, 2-methylsulfinyl-5-n-hexyl-N-hydroxy-N-methylcinnamamide] | 71 | 96 | – | – | –
